Measured values: the supplement of paper PMC10307832

Experiments:
Test in all cases: relative viability (nuclei count vs DMSO), 5 days (fraction); higher = more cells survive
[1] = compound: CN[C@@H]1C[C@H]2O[C@@](C)([C@@H]1OC)n1c3ccccc3c3c4c(c5c6ccccc6n2c5c31)C(=O)NC4 [Staurosporine] + C[C@@H](Oc1cc(-c2cnn(C3CCNCC3)c2)cnc1N)c1c(Cl)ccc(F)c1Cl [Crizotinib] (partner 1 µM)
Summary of the method: (§1)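 Relative viability equals treated-well nuclei counts divided by vehicle-well nuclei counts. Counts came from 4× images of lung cancer cell lines grown in 1536-well plates for 5 days after pin-tool dosing on the day after seeding. Dosing used one drug alone or a fixed anchor-drug dose plus five library-drug doses (not always all listed) in √10 steps, and values are medians of duplicate plates.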

[2] = compound: O=c1[nH]cc(F)c(=O)[nH]1 [5-Fluorouracil] + CCNC(=O)c1noc(-c2cc(C(C)C)c(O)cc2O)c1-c1ccc(CN2CCOCC2)cc1 [Luminespib] (partner 0.01 µM)
Summary of the method: as §1

[3] = compound: O=c1[nH]cc(F)c(=O)[nH]1 [5-Fluorouracil] + C[C@@H](Oc1cc(-c2cnn(C3CCNCC3)c2)cnc1N)c1c(Cl)ccc(F)c1Cl [Crizotinib] (partner 1 µM)
Summary of the method: as §1

[4] = compound: O=c1[nH]cc(F)c(=O)[nH]1 [5-Fluorouracil] + Nc1nc2[nH]cc(CCc3ccc(C(=O)N[C@@H](CCC(=O)O)C(=O)O)cc3)c2c(=O)[nH]1 [Pemetrexed] (partner 0.2 µM)
Summary of the method: as §1

Cell Line | relative viability ([1]; first compound 0.005 µM) | relative viability ([1]; first compound 0.01581 µM) | relative viability ([1]; first compound 0.05 µM) | relative viability ([1]; first compound 0.1581 µM) | relative viability ([1]; first compound 0.5 µM) | relative viability ([2]; first compound 0.02 µM) | relative viability ([2]; first compound 0.2 µM) | relative viability ([2]; first compound 0.6325 µM) | relative viability ([2]; first compound 2 µM) | relative viability ([3]; first compound 0.02 µM) | relative viability ([3]; first compound 0.2 µM) | relative viability ([3]; first compound 0.6325 µM) | relative viability ([3]; first compound 2 µM) | relative viability ([4]; first compound 0.02 µM) | relative viability ([4]; first compound 0.2 µM) | relative viability ([4]; first compound 0.6325 µM) | relative viability ([4]; first compound 2 µM)
NCI-H2347 | 0.559 | 0.353 | 0.364 | 0.415 | 0.449 | 0.41 | 0.72 | 0.41 | 0.411 | 0.78 | 0.534 | 0.563 | 0.479 | 0.365 | 0.414 | 0.424 | 0.426
NCI-H2405 | 0.681 | 0.319 | 0.146 | 0.125 | 0.106 | 0.707 | 0.786 | 0.676 | 0.693 | 0.871 | 0.954 | 0.797 | 0.579 | 1.11 | 1.12 | 1.07 | 0.535
NCI-H3122 | 0.443 | 0.465 | 0.59 | 0.32 | 0.318 | 0.104 | 0.09 | 0.095 | 0.088 | 0.252 | 0.274 | 0.232 | 0.215 | 0.197 | 0.181 | 0.167 | 0.164
PC-3 [JPC-3] | – | – | 0.707 | 0.498 | 0.425 | 0.66 | 0.753 | 0.621 | 0.524 | 0.989 | 0.996 | 0.882 | 0.676 | 0.987 | 1.02 | 1.02 | 0.751
PC-14 | 0.683 | 0.714 | 0.141 | 0.0852 | 0.0777 | 0.117 | 0.151 | 0.171 | 0.191 | 0.899 | 0.928 | 0.788 | 0.456 | 0.128 | 0.14 | 0.147 | 0.18
RERF-LC-KJ | 0.823 | 0.717 | 0.516 | 0.223 | 0.244 | 1.42 | 1.24 | 1.22 | 0.904 | 0.867 | 0.841 | 0.849 | 0.665 | 0.483 | 0.507 | 0.531 | 0.495
SK-LU-1 | 0.372 | 0.198 | 0.19 | 0.169 | 0.161 | 0.196 | 0.216 | 0.231 | 0.193 | 0.98 | 0.977 | 0.918 | 0.74 | 0.959 | 1.01 | 0.916 | 0.763
SK-MES-1 | 0.718 | 0.582 | 0.262 | 0.184 | 0.11 | 1.07 | 0.606 | 0.349 | 0.255 | 1.01 | 0.743 | 0.368 | 0.319 | 0.837 | 0.473 | 0.351 | 0.303
SW 1573 | 0.678 | 0.583 | 0.186 | 0.134 | 0.119 | 0.253 | 0.228 | 0.323 | 0.169 | 0.824 | 0.899 | 0.778 | 0.463 | 0.853 | 0.815 | 0.704 | 0.408
